Consider ten compounds from BindingDB's records for doi:10.1021/jm970200u (Northwestern University, 1997).

This experiment in a line: Inhibition of Neuronal Nitric oxide synthase enzyme (nNOS).

Each structure is given as a SMILES string. Where a SMILES comes first, the peptide text is derived from it. [ ]: non-standard residue; d: D form. The star is where a group is joined. dArg(NO2) = N=C(NCCC[C@@H](N)C(=O)O)N[N+](=O)[O-]; Arg(NO2) = N=C(NCCC[C@H](N)C(=O)O)N[N+](=O)[O-]; OBn = c1ccc(CO*)cc1

As for `NC(=NCCC[C@H](N)C(=O)N[C@@H](Cc1ccccc1)C(=O)O)N[N+](=O)[O-]`, the affinity corresponds to a Ki of 18 µM. The figure for `COC(=O)[C@H](Cc1ccccc1)NC(=O)[C@@H](N)CCCN=C(N)N[N+](=O)[O-]` is 290 µM; for `COC(=O)[C@@H](CCCN=C(N)N[N+](=O)[O-])NC(=O)[C@H](N)Cc1ccccc1` it is 400 µM; for `COC(=O)[C@@H](Cc1ccccc1)NC(=O)[C@@H](N)CCCN=C(N)N[N+](=O)[O-]` it is 92 µM.

Take `NC(=NCCC[C@H](N)C(=O)N[C@@H](Cc1ccccc1)C(=O)OCc1ccccc1)N[N+](=O)[O-]`: the Ki (in general, a dissociation constant, usually derived from enzyme kinetics or from competition with a known ligand) is 55 µM.

`COC(=O)[C@H](CCCN=C(N)N[N+](=O)[O-])NC(=O)[C@@H](N)Cc1ccccc1`: affinity was put at a Ki of 370 µM. Compound `COC(=O)[C@@H](CCCN=C(N)N[N+](=O)[O-])NC(=O)[C@@H](N)Cc1ccccc1` returned an inhibition constant (Ki) of 90 µM. The figure for `NC(=NCCC[C@H](NC(=O)[C@@H](N)Cc1ccccc1)C(=O)OCc1ccccc1)N[N+](=O)[O-]` (H-Phe-[Arg(NO2)]-OBn) is 110 µM; for `N=C(NCCC[C@@H](NC(=O)[C@H](N)Cc1ccccc1)C(=O)O)N[N+](=O)[O-]` [(2R)-2-{[(2R)-2-amino-3-phenylpropanoyl]amino}-5-{[(Z)-imino(nitroamino)methyl]amino}pentanoic acid] (H-[dF]-[dArg(NO2)]-OH) it is 17 µM; for `COC(=O)[C@@H](Cc1ccccc1)NC(=O)[C@H](N)CCCNC(=N)N[N+](=O)[O-]` [D-Nitroarginine,methoxy-D-phenylalanine,with 2M of hydrochloric acid] it is 150 µM.
